# Test results reported in US20090170938A1 (priority 2005, published 2009).
# Tested on: Phytophthora infestans
# Assay type: in vivo, Phytophthora infestans on tomato
# Conditions: active compound application rate 5 ppm; protective spray, tomato; evaluation 3 days after inoculation
smiles,measurement,value
"CON=C(C(=O)OC)c1ccccc1CO/N=C(\C)c1cccc(C(F)(F)F)c1 [Trifloxystrobin, 2-[α-{[(α-methyl-3-trifluoromethyl-benzyl)imino]-oxy}-o-tolyl]-glyoxylic acid methyl ester O-methyloxime]",% efficacy,23%
